Earlier results as cited in patent US20150320096A1, “Dietary Supplement” (MC Corp., priority 2013, published 2015).
Values belong to the compound of their own block, whether it stands above or below them.

How the values were obtained:
[1] = tested on: glut-4 transporters; settings: muscle tissue
[2] = oral administration
[3] = oral

SMILES: O=C(O)CCCCC1CCSS1 (stereo not drawn) [ALA, Alpha-Lipoic Acid]
- increase in the number of glut-4 transporters on the outside of the muscle cells [1]: ≤ 50%

- ingested dose absorbed by diffusion process [3]: approximately 1%
SMILES: C/C1=C2/[N-][C@H]([C@H](CC(N)=O)[C@@]2(C)CCC(=O)NC[C@@H](C)OP(=O)([O-])O[C@H]2[C@@H](O)[C@@H](n3cnc4cc(C)c(C)cc43)O[C@@H]2CO)[C@]2(C)N=C(/C(C)=C3N=C(/C=C4N=C1[C@@H](CCC(N)=O)C\4(C)C)[C@@H](CCC(N)=O)[C@]\3(C)CC(N)=O)[C@@H](CCC(N)=O)[C@]2(C)CC(N)=O.[CH3-].[Co+3] [Methylcobalamin]
- burning sensations, numbness, loss of sensation, and muscle cramps [2]: subjective improvement

- increase of plasma coenzyme Q10 (dietary supplementation, patients with diabetes): at least 3 fold
SMILES: COC1=C(OC)C(=O)C(C/C=C(\C)CC/C=C(\C)CC/C=C(\C)CC/C=C(\C)CC/C=C(\C)CC/C=C(\C)CC/C=C(\C)CC/C=C(\C)CC/C=C(\C)CCC=C(C)C)=C(C)C1=O [coenzyme Q10, Coenzyme Q10]
- blood glucose levels (dietary supplementation): significantly reduce
- hemoglobin A1C (HbA1C) (dietary supplementation): lower
- blood pressure (patients with diabetes): significantly lowered
- insulin requirements (patients with diabetes): reduce
